This is an account of results in paper PMC4367813 (Current medicinal chemistry, 2012).

Where two headings read alike, the source gives them in different places. Residues, ends and D or L forms follow the SMILES beside them. *: point of attachment. Cbz = O=C(OCc1ccccc1)* A value given as a limit tells only on which side of the number the result lay.

One series has as its target T1, carboxypeptidase A (CPA) (Bos taurus, UniProt P00730).
T1 sequence (P00730 111-419): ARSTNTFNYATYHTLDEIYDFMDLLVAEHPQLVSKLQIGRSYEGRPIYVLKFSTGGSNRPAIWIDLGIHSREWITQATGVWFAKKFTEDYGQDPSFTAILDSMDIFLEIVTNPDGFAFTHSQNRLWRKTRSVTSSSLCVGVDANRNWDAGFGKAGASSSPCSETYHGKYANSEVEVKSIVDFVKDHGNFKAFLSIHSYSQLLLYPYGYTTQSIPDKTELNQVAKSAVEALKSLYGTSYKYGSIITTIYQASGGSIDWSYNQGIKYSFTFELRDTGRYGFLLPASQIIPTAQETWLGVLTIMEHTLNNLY
Briefly: Specificity: carboxypeptidase A inhibition. It is filed as biochemical.

The target in another series is T2, carboxypeptidase M (CPM) (Homo sapiens, UniProt P14384).
T2 sequence (P14384 18-443): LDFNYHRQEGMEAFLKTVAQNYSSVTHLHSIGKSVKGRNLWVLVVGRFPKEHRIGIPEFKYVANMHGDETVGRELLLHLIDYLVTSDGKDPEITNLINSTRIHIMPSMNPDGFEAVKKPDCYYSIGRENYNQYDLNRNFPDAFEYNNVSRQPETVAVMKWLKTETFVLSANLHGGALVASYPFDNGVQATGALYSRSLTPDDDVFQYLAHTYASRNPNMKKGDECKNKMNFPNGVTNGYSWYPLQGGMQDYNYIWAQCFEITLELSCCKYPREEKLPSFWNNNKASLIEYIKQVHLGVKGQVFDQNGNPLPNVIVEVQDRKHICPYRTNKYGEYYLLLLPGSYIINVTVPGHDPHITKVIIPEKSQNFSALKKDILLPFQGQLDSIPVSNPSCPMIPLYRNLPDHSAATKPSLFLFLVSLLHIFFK
Put plainly: Specificity: carboxypeptidase M inhibition. It is filed as biochemical. The conditions noted are these: Table 5, NE = no effect.

A further series deals with PRCP. The conditions noted are these: read-out: PRCP IC50, cited from earlier work.
The target of a further series is T3, recombinant PRCP (rPRCP) (Homo sapiens, UniProt P42785).
T3 sequence (P42785 46-496): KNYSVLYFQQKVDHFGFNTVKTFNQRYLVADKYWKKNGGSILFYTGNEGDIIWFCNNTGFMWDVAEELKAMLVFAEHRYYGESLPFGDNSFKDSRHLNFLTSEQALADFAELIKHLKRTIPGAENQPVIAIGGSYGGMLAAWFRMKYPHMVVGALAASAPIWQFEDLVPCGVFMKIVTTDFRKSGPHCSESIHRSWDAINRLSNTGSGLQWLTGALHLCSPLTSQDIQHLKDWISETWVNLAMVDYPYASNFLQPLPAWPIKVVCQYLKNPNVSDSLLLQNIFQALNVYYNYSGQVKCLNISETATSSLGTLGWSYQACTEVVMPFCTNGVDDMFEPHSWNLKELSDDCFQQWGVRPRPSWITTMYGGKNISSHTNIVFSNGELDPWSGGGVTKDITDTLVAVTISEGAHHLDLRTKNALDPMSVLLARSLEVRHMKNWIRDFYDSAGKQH
Put plainly: rPRCP activity, cleavage of chromogenic substrate APpNA. It is filed as biochemical. The conditions noted are these: 1 mM APpNA, 60 min; NE = no effect.

Series [1] addresses PRCP-dependent prekallikrein (PK) activation on HPAEC. Briefly: PRCP-dependent PK activation on HPAEC. It is filed as cell-based, human. The conditions noted are these: 20 nM HK, 20 nM PK; NE = no effect.
Series [2] deals with T4, carboxypeptidase N (hCPN, partially purified from plasma) (Homo sapiens, UniProt P15169).
T4 sequence (P15169 21-458): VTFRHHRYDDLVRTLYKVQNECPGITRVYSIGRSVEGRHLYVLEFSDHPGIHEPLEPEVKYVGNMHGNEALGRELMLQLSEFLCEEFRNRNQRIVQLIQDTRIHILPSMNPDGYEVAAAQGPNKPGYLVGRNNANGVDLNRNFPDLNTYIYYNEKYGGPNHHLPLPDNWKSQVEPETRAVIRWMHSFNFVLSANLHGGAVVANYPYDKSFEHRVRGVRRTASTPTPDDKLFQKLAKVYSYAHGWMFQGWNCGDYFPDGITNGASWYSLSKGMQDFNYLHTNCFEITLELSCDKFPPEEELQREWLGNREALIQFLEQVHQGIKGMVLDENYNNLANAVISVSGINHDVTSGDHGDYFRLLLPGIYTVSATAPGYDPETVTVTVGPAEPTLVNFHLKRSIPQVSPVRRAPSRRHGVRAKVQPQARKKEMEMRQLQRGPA
T4 sequence (P22792 22-545 partner): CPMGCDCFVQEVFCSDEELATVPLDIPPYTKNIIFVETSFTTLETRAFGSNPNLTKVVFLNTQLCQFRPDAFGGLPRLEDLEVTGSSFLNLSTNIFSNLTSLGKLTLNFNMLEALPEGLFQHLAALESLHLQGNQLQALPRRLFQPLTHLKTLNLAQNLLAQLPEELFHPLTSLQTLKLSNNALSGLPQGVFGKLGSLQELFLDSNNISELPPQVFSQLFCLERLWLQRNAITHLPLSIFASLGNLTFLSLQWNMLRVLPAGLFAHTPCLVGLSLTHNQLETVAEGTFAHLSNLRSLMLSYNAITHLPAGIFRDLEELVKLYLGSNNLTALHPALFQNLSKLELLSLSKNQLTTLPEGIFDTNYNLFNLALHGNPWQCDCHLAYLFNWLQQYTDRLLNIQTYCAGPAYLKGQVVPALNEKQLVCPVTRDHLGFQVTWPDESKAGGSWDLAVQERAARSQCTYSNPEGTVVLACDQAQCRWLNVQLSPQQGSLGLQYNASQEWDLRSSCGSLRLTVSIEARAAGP
Briefly: Specificity: carboxypeptidase N inhibition. It is filed as biochemical. The conditions noted are these: Table 5, NE = no effect.

For the next series, the system named is NO formation on HPAEC. Put plainly: PRCP-induced nitric oxide formation on HPAEC. It is filed as cell-based, human. The conditions noted are these: HPAEC with HK/PK complexes, 100 µM.
Another series deals with food intake in mice. The conditions noted are these: fasted mice.
Another series concerns the target T5, carboxypeptidase B (CPB) (Sus scrofa, UniProt P09955).
T5 sequence (P09955 111-416): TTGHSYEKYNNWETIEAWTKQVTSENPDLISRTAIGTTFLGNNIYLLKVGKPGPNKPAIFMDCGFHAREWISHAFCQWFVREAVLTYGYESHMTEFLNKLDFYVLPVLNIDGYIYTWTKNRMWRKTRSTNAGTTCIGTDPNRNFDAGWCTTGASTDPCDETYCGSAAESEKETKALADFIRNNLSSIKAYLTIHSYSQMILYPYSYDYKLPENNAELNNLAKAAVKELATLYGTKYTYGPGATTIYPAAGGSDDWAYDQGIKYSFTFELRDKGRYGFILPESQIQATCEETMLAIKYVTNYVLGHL
Briefly: Specificity: carboxypeptidase B inhibition. It is filed as biochemical. The conditions noted are these: Table 5, NE = no effect.

The test system of series [3] is PGI2 (6-keto prostaglandin F1α) release from HPAEC. Put plainly: PRCP-induced 6-keto prostaglandin F1α release from HPAEC. It is filed as cell-based, human. The conditions noted are these: HPAEC with HK/PK complexes, 100 µM.
Where [4] appears, read: mice, Compound 3 (400 µM), within 8 hours of administration.

One may read the Ki as a dissociation constant, usually derived from enzyme kinetics or from competition with a known ligand. Turning to `c1cnc2c(c1)ccc1cccnc12` [1,10-Phenanthroline, 1,10-phenanthroline, reference compound], the Ki on carboxypeptidase A (CPA) stood at 486 µM; on carboxypeptidase M (CPM) (Ki CPM), 394 µM.

A word on the IC50: it is the concentration needed to halve the response being measured. In the case of `O=C[C@@H]1CCCN1C(=O)[C@@H]1CCCN1C(=O)OCc1ccccc1` (Cbz-Pro-Pro-aldehyde), in the series with PRCP, the IC50 was over 1000 µM.

Consider `O=C[C@@H]1CCCN1C(=O)[C@@H]1CCCN1C(=O)OCc1ccccc1` [z-Pro-Prolinal, 1-[1-(benzyloxycarbonyl)-L-prolyl] prolinal] (Cbz-Pro-Pro-aldehyde), for which the “rPRCP Ki” value on recombinant PRCP (rPRCP) is “little effect”. The “PRCP-Dependent PK Activation on HPAEC Ki” value in series [1] is recorded as “little effect”. Also, the IC50 with PRCP (listed as Z-Pro-Pro-OH) is over 2000 µM.

On to `CCCCCCCCCCCCNC(=O)[C@@H]1CCCN1C(=O)[C@@H]1CCCN1` [Compound 3, (S)-N-dodecyl-1-((S)-pyrrolidine-2-carbonyl) pyrrolidine-2-carboxamide], for which, in series [2], the “Ki CPN” value is “did not inhibit”. The inhibition constant Ki in series [2] (read-out: Ki CPN) was over 1000 µM. For the same molecule, in the series on NO formation on HPAEC, the “reduction of NO production” value came out at 80%. For the same molecule, the food intake result in the series on food intake in mice (1 mg/kg ip, 1-24 h) is listed as “lower food intake, although the reduction was not significant at 2, 4, 8, or 24 h”. Also, the food intake result in the series with food intake in mice (10 mg/kg ip, all time intervals 1-24 h, P < 0.05 vs saline) was “Significant declines in food intake”. In addition, the “time at which attenuation of food intake started” value in the series on food intake in mice (ip) is at most 1 h. In the series “Metabolic panel” (setting [4]), this molecule displayed an ALB of 3.9, an ALP of 93, an ALT of 33 and an AMY of 1041. In the series “Metabolic panel” (setting [4]), the BUN turned out to be 19, the CRE was found to be 0.3, the “Ca^2+” value is on record as 9.9 and the GLOB amounted to 1.5. For the same molecule, in “Metabolic panel” (setting [4]), the GLU was 165, the “K+” value is on record as 5.4, the “Na+” value worked out at 151 and the PHOS worked out at 8.0. Further, in “Metabolic panel” (setting [4]), the TBIL was determined as 0.4 and the TP was found to be 5.3. For the same molecule, the “changes in electrolyte levels, or markers of kidney and liver function” value in the series “Metabolic panel” (mice, within 8 hours of administration) is “did not cause significant changes”. Also, in “Metabolic panel” (treated mice, n=3, P = 0.26), the “decrease in blood glucose levels” value was 15%. The “Ki CPA” value at carboxypeptidase A (CPA) (Table 5, NE = no effect) is “not inhibited”. Further, at carboxypeptidase A (CPA) (read-out: Ki CPA, Table 5, NE = no effect), the Ki was over 1000 µM. Besides, at carboxypeptidase B (CPB), the “Ki CPB” value is reported as “not inhibited”. Also, on carboxypeptidase B (CPB) (read-out: Ki CPB), the Ki is over 1000 µM. Also, the “Ki CPM” value at carboxypeptidase M (CPM) is recorded as “did not inhibit”. On carboxypeptidase M (CPM) (read-out: Ki CPM), the Ki is over 1000 µM. In series [3], the “reduction of PGI2 production” value worked out at 80%.
